Biological target: GPR17 (Homo sapiens, UniProt Q13304)
Experiment: Calcium mobilization functional assay (GPR17 Ca2+ assay)
Type: cell-based
Set-up: host or cells: Flp-In T-REx CHO
Details: CHO hGPR17 cells, inhibition of 50 nM MDL29,951, Calcium 5 dye, FLIPR; read-out: Ca2+ assay pIC50 (converted)
Description: Flp-In T-REx CHO cells stably expressing human GPR17 receptor (CHO hGPR17) from Evi Kostenis' lab (Bonn University, Germany) were cultured at 37° C. in a humidified atmosphere of 5% CO2. Cells were grown in DMEM with Nutrient Mixture F-12 supplemented with hygromycin B (500 μg/mL) and blasticidin (30 μg/mL). Expression from the Flp-In locus was induced by treatment with doxycycline (1 μg/mL) for 16-20 h prior assays.
GPR17 is a G-protein coupled receptor. GPR17 activation triggers Gq-type G-protein signaling resulting in endoplasmic reticulum calcium (Ca^2+) stores release in cytosol which can be measured using Calcium 5 dye, a fluorescent indicator dye of cytosolic Ca^2+ levels. All Examples were tested in GPR17 Ca^2+ assay to determine (screen) their GPR17 modulating activity.
CHO hGPR17 were defrosted and seeded at a density of 20,000 cells per well into black 384-well plates with clear bottom. Cells were incubated overnight at 37° C. in a humidified atmosphere of 5% CO2. Sixteen to twenty hours after seeding, CHO hGPR17 were loaded for 60 min with Calcium 5 dye, a cytosolic Ca^2+ indicator fluorescent dye, according to manufacturer's instructions. Fluorescent signal relative to cytosolic Ca^2+ concentration was recorded over time at room temperature in FLIPR Tetra reader. […] Then, 50 nM MDL29,951, a GPR17 agonist, was added to the cells. Inhibitory effects of varying concentrations test compounds were measured and resulting plC50s were determined. […] Analysis and curve fitting were performed in ActivityBase XE using XLfit 4-parameter logistic equation y=A+((B−A)/(1+((C/x)^D))) where A, B, C and D stand for minimum y, maximum y, IC50 and slope, respectively.
The activities of the Example compounds tested are depicted in the table in Section B2B below. The activity ranges A, B and C refer to plC50 values in the Ca^2+ assay as follows: “A”: plC50<7.5, “B”: plC50 7.5<x≤ 8.5, “C”: plC50>8.5

Sequence of GPR17 (Q13304 whole entry): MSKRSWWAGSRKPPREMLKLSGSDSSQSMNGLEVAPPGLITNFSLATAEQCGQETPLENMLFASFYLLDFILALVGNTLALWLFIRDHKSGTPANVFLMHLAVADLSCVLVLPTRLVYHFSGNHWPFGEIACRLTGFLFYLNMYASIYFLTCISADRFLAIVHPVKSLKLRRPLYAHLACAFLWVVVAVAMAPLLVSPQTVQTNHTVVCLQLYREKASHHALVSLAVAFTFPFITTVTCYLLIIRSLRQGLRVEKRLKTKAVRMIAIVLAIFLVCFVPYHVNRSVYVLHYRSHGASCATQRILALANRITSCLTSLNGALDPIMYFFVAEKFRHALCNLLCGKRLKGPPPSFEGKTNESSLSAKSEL

Structure (SMILES)	IC50 [nM]
COc1ccc2c(S(=O)(=O)Nc3cc(F)c(F)cc3F)c[nH]c2c1 [Compound I-2, 6-methoxy-N-(2,4,5-trifluorophenyl)-1H-indole-3-sulfonamide]	> 31.6
O=S(=O)(Nc1ccc2ncsc2c1)c1c[nH]c2cc(Cl)ccc12 [Compound I-3, N-(1,3-benzothiazol-6-yl)-6-chloro-1H-indole-3-sulfonamide]	> 31.6
O=S(=O)(Nc1ccc2c(c1)OCO2)c1c[nH]c2cc(Cl)ccc12 [Compound I-5, N-(1,3-benzodioxol-5-yl)-6-chloro-1H-indole-3-sulfonamide]	> 31.6
COC(=O)c1ccc(NS(=O)(=O)c2c[nH]c3cc(Cl)ccc23)cc1 [Compound I-6, methyl 4-{[(6-chloro-1H-indol-3-yl)sulfonyl]amino}benzoate]	> 31.6
Cc1ccc(NS(=O)(=O)c2c[nH]c3cc(Cl)ccc23)cc1F [Compound I-7, 6-chloro-N-(3-fluoro-4-methylphenyl)-1H-indole-3-sulfonamide]	> 31.6
O=S1(=O)CCc2ccc(NS(=O)(=O)c3c[nH]c4cc(Cl)ccc34)cc21 [Compound I-10, 6-chloro-N-(1,1-dioxido-2,3-dihydro-1-benzothiophen-6-yl)-1H-indole-3-sulfonamide]	> 31.6
O=S(=O)(Nc1ccccc1F)c1c[nH]c2cc(Cl)ccc12 [Compound I-11, 6-chloro-N-(2-fluorophenyl)-1H-indole-3-sulfonamide]	> 31.6
N#Cc1ccc(NS(=O)(=O)c2c[nH]c3ccc(Br)cc23)cc1 [Compound I-13, 5-bromo-N-(4-cyanophenyl)-1H-indole-3-sulfonamide]	> 31.6
N#Cc1ccc(NS(=O)(=O)c2c[nH]c3ccc(I)cc23)cc1 [Compound I-15, N-(4-cyanophenyl)-5-iodo-1H-indole-3-sulfonamide]	> 31.6
N#Cc1ccc(NS(=O)(=O)c2c[nH]c3c(Cl)cccc23)cc1 [Compound I-16, 7-chloro-N-(4-cyanophenyl)-1H-indole-3-sulfonamide]	> 31.6
N#Cc1ccc(NS(=O)(=O)c2c[nH]c3ccc(Cl)cc23)cc1 [Compound I-17, 5-chloro-N-(4-cyanophenyl)-1H-indole-3-sulfonamide]	> 31.6
Cc1cc2c(S(=O)(=O)Nc3ccc(C#N)cc3)c[nH]c2cc1Br [Compound I-18, 6-bromo-N-(4-cyanophenyl)-5-methyl-1H-indole-3-sulfonamide]	3.16 to 31.6
N#Cc1ccc(NS(=O)(=O)c2c[nH]c3cc4c(cc23)OCO4)cc1 [Compound I-19, N-(4-cyanophenyl)-5H-[1,3]dioxolo[4,5-f]indole-7-sulfonamide]	> 31.6
Cc1ccc2c(S(=O)(=O)Nc3ccc(C#N)cc3)c[nH]c2c1 [Compound I-20, N-(4-cyanophenyl)-6-methyl-1H-indole-3-sulfonamide]	3.16 to 31.6
O=S(=O)(Nc1cc(F)cc(F)c1)c1c[nH]c2cc(Cl)ccc12 [Compound I-21, 6-chloro-N-(3,5-difluorophenyl)-1H-indole-3-sulfonamide]	> 31.6
C#Cc1ccc(NS(=O)(=O)c2c[nH]c3cc(Cl)ccc23)cc1 [Compound I-22, 6-chloro-N-(4-ethynylphenyl)-1H-indole-3-sulfonamide]	> 31.6
O=S(=O)(Nc1cccc(F)c1Cl)c1c[nH]c2cc(Cl)ccc12 [Compound I-23, 6-chloro-N-(2-chloro-3-fluorophenyl)-1H-indole-3-sulfonamide]	> 31.6
O=S(=O)(Nc1ccccc1Cl)c1c[nH]c2cc(Cl)ccc12 [Compound I-26, 6-chloro-N-(2-chlorophenyl)-1H-indole-3-sulfonamide]	> 31.6
Cc1cc2c(S(=O)(=O)Nc3cc(F)ccc3F)c[nH]c2cc1Br [Compound I-27, 6-bromo-N-(2,5-difluorophenyl)-5-methyl-1H-indole-3-sulfonamide]	> 31.6
CS(=O)(=O)c1ccc2c(S(=O)(=O)Nc3cc(F)ccc3F)c[nH]c2c1 [Compound I-28, N-(2,5-difluorophenyl)-6-(methylsulfonyl)-1H-indole-3-sulfonamide]	> 31.6
Cc1ccc2c(S(=O)(=O)Nc3cccc4c3OCO4)c[nH]c2c1 [Compound I-29, N-(1,3-benzodioxol-4-yl)-6-methyl-1H-indole-3-sulfonamide]	> 31.6
O=S(=O)(Nc1cc(F)ccc1F)c1c[nH]c2cc3c(cc12)OCO3 [Compound I-30, N-(2,5-difluorophenyl)-5H-[1,3]dioxolo[4,5-f]indole-7-sulfonamide]	> 31.6
O=S(=O)(Nc1cccc2c1OCO2)c1c[nH]c2cc(F)ccc12 [Compound I-31, N-(1,3-benzodioxol-4-yl)-6-fluoro-1H-indole-3-sulfonamide]	> 31.6
Cc1ccc2c(S(=O)(=O)Nc3cc(F)ccc3F)c[nH]c2c1 [Compound I-32, N-(2,5-difluorophenyl)-6-methyl-1H-indole-3-sulfonamide]	> 31.6
CS(=O)(=O)c1ccc2c(S(=O)(=O)Nc3cccc4c3OCO4)c[nH]c2c1 [Compound I-33, N-(1,3-benzodioxol-4-yl)-6-(methylsulfonyl)-1H-indole-3-sulfonamide]	> 31.6
C#Cc1ccc(NS(=O)(=O)c2c[nH]c3cc(S(C)(=O)=O)ccc23)cc1 [Compound I-34, N-(4-ethynylphenyl)-6-(methylsulfonyl)-1H-indole-3-sulfonamide]	> 31.6
Cc1cc2c(S(=O)(=O)Nc3cccc4c3OCO4)c[nH]c2cc1Br [Compound I-35, N-(1,3-benzodioxol-4-yl)-6-bromo-5-methyl-1H-indole-3-sulfonamide]	> 31.6

More lines, now with the values ahead:

IC50 [nM]	Structure (SMILES)
> 31.6	CS(=O)(=O)c1ccc2c(S(=O)(=O)Nc3ccc4c(c3)OC(F)(F)O4)c[nH]c2c1 [Compound I-36, N-(2,2-difluoro-1,3-benzodioxol-5-yl)-6-(methylsulfonyl)-1H-indole-3-sulfonamide]
> 31.6	O=S(=O)(Nc1cc(F)ccc1F)c1c[nH]c2cc(F)ccc12 [Compound I-37, N-(2,5-difluorophenyl)-6-fluoro-1H-indole-3-sulfonamide]
> 31.6	O=S(=O)(Nc1cc(F)ccc1Br)c1c[nH]c2cc(Cl)ccc12 [Compound I-38, N-(2-bromo-5-fluorophenyl)-6-chloro-1H-indole-3-sulfonamide]
> 31.6	O=S(=O)(Nc1cc(Cl)cc(Cl)n1)c1c[nH]c2cc(Cl)ccc12 [Compound I-40, 6-chloro-N-(4,6-dichloropyridin-2-yl)-1H-indole-3-sulfonamide]
> 31.6	O=S(=O)(Nc1cc(F)c(F)cc1F)c1c[nH]c2cc(F)ccc12 [Compound I-41, 6-fluoro-N-(2,4,5-trifluorophenyl)-1H-indole-3-sulfonamide]
> 31.6	O=S(=O)(Nc1ccc(I)cc1F)c1c[nH]c2cc(C(F)(F)F)ccc12 [Compound I-42, N-(2-fluoro-4-iodophenyl)-6-(trifluoromethyl)-1H-indole-3-sulfonamide]
> 31.6	O=S(=O)(Nc1ccc(Cl)cc1F)c1c[nH]c2cc3c(cc12)OCO3 [Compound I-43, N-(4-chloro-2-fluorophenyl)-5H-[1,3]dioxolo[4,5-f]indole-7-sulfonamide]
> 31.6	O=S(=O)(Nc1ccc(Cl)cc1F)c1c[nH]c2c1ccc1ccccc12 [Compound I-45, N-(4-chloro-2-fluorophenyl)-1H-benzo[g]indole-3-sulfonamide]
> 31.6	O=S(=O)(Nc1cc(F)c(F)cc1F)c1c[nH]c2cc3c(cc12)OCO3 [Compound I-46, N-(2,4,5-trifluorophenyl)-5H-[1,3]dioxolo[4,5-f]indole-7-sulfonamide]
> 31.6	O=S(=O)(Nc1ccc(I)cc1F)c1c[nH]c2c1ccc1ccccc12 [Compound I-47, N-(2-fluoro-4-iodophenyl)-1H-benzo[g]indole-3-sulfonamide]
> 31.6	O=S(=O)(Nc1ccc(Cl)cc1F)c1c[nH]c2cc(F)ccc12 [Compound I-51, N-(4-chloro-2-fluorophenyl)-6-fluoro-1H-indole-3-sulfonamide]
> 31.6	O=S(=O)(Nc1ccc(Cl)cc1F)c1c[nH]c2cc(C(F)(F)F)ccc12 [Compound I-53, N-(4-chloro-2-fluorophenyl)-6-(trifluoromethyl)-1H-indole-3-sulfonamide]
> 31.6	O=S(=O)(Nc1cc(F)c(F)cc1F)c1c[nH]c2cc(C(F)(F)F)ccc12 [Compound I-54, 6-(trifluoromethyl)-N-(2,4,5-trifluorophenyl)-1H-indole-3-sulfonamide]
> 31.6	O=S(=O)(Nc1cccc(Cl)n1)c1c[nH]c2cc(Cl)ccc12 [Compound I-57, 6-chloro-N-(6-chloropyridin-2-yl)-1H-indole-3-sulfonamide]

— patent publication US12071404B2, “Aza (indole)-, benzothiophene-, and benzofuran-3-sulfonamides” (UCB Pharma GmbH, priority 2016, dated 2024)
